Test results reported in patent US6737383B1, “Herbicidal oxadiazolidines” (priority 1999, dated 2004).

How the values were obtained:
fall panicum = test: Test C postemergence fall panicum; type: in vivo, Panicum dichotomiflorum; details: 0 to 100 scale, 0 no effect, 100 complete control
Procedure: (§1) Compounds evaluated in this test were formulated in a non-phytotoxic solvent mixture which included a surfactant and applied to plants that were grown for various periods of time before treatment (postemergence application). A mixture of sandy loam soil and greenhouse potting mix in a 60:40 ratio was used for the postemergence test.
(§2) Plantings of these crops and weed species were adjusted to produce plants of appropriate size for the postemergence test. All plant species were grown using normal greenhouse practices. Crop and weed species include arrowleaf sida (Sida rhombifolia), barnyardgrass (Echinochloa crus-galli), cocklebur (Xanthium strumarium), common ragweed (Ambrosia elatior), corn (Zea mays), cotton (Gossypium hirsutum), eastern black nightshade (Solanum ptycanthum), fall panicum (Panicum dichotomiflorum), field bindweed (Convolvulus arvensis), giant foxtail (Setaria faberii), hairy beggarticks (Bidens pilosa), ivyleaf morningglory (Ipomoea hederacea), johnsongrass (Sorghum halepense), ladysthumb smartweed (Polygonum persicaria), lambsquarters (Chenopodium album), large crabgrass (Digitaria sanguinalis), purple nutsedge (Cyperus rotundus), redroot pigweed (Amaranthus retroflexus), soybean (Glycine max), surinam grass (Brachiaria decumbens), velvetleaf (Abutilon theophrasti) and wild poinsettia (Euphorbia heterophylla).
(§3) Treated plants and untreated controls were maintained in a greenhouse for approximately 14, to 21 days, after which all treated plants were compared to untreated controls and visually evaluated. Plant response ratings, summarized in Table C, were based upon a 0 to 100 scale where 0 was no effect and 100 was complete control. A dash response (−) means no test result.

redroot pigweed = test: Test C postemergence redroot pigweed; type: in vivo, Amaranthus retroflexus; details: 0 to 100 scale, 0 no effect, 100 complete control
Procedure: as §1, §2, §3

cocklebur = test: Test C postemergence cocklebur; type: in vivo, Xanthium strumarium; details: 0 to 100 scale, 0 no effect, 100 complete control
Outline: (§4)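 Soil: sandy loam/potting mix 60:40. Treatment: postemergence, solvent + surfactant formulation. Readout: visual control score 0–100 vs untreated at ~14–21 days.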

eastern black nightshade = test: Test C postemergence eastern black nightshade; type: in vivo, Solanum ptycanthum; details: 0 to 100 scale, 0 no effect, 100 complete control
Procedure: as §1, §2, §3

ivyleaf morningglory = test: Test C postemergence ivyleaf morningglory; type: in vivo, Ipomoea hederacea; details: 0 to 100 scale, 0 no effect, 100 complete control
Outline: as §4

cotton = test: Test C postemergence cotton; type: in vivo, Gossypium hirsutum; details: 0 to 100 scale, 0 no effect, 100 complete control
Procedure: as §1, §2, §3

velvetleaf = test: Test C postemergence velvetleaf; type: in vivo, Abutilon theophrasti; details: 0 to 100 scale, 0 no effect, 100 complete control
Procedure: as §1, §2, §3

giant foxtail = test: Test C postemergence giant foxtail; type: in vivo, Setaria faberii; details: 0 to 100 scale, 0 no effect, 100 complete control
Outline: as §4

ladysthumb smartweed = test: Test C postemergence ladysthumb smartweed; type: in vivo, Polygonum persicaria; details: 0 to 100 scale, 0 no effect, 100 complete control
Procedure: as §1, §2, §3

barnyardgrass = test: Test A barnyardgrass; type: in vivo, Echinochloa crus-galli; details: 0 to 10 scale where 0 is no effect and 10 is complete control
Outline: (§5)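 Injury scored visually after about eleven greenhouse days against untreated plants, 0 = no effect, 10 = complete control. Compounds, formulated in surfactant-containing non-phytotoxic solvent, were applied as preemergence soil drench to sandy loam plantings and as postemergence runoff spray at the 1–2 leaf stage.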

crabgrass = test: Test A crabgrass; type: in vivo, Digitaria spp.; details: 0 to 10 scale where 0 is no effect and 10 is complete control
Outline: as §5

Green foxtail [1] = test: Test D green foxtail; type: in vivo; details: Rate 64 g/ha, Postemergence; 0 to 100 scale, 0 no injury, 100 complete control
itchgrass = test: Test D itchgrass; type: in vivo, Rottboellia exaltata; details: Rate 64 g/ha, Postemergence; 0 to 100 scale, 0 no injury, 100 complete control
guineagrass = test: Test D guineagrass; type: in vivo, Panicum maximum; details: Rate 64 g/ha, Postemergence; 0 to 100 scale, 0 no injury, 100 complete control
common groundsel = test: Test D common groundsel; type: in vivo, Senecio vulgaris; details: Rate 64 g/ha, Postemergence; 0 to 100 scale, 0 no injury, 100 complete control
Green foxtail [2] = test: Test D green foxtail; type: in vivo; details: Rate 64 g/ha, Postemergence; 0 to 100 scale, 0 no injury, 100 complete control; remark: listed apart in the source
bermuda-grass = test: Test D bermudagrass; type: in vivo, Cynodon dactylon; details: Rate 64 g/ha, Postemergence; 0 to 100 scale, 0 no injury, 100 complete control
Spanishneedles = test: Test D Spanishneedles; type: in vivo, Bidens bipinnata; details: Rate 64 g/ha, Postemergence; 0 to 100 scale, 0 no injury, 100 complete control
pitted morningglory = test: Test D pitted morningglory; type: in vivo, Ipomoea lacunosa; details: Rate 64 g/ha, Postemergence; 0 to 100 scale, 0 no injury, 100 complete control
tall mallow = test: Test D tall mallow; type: in vivo, Malva sylvestris; details: Rate 64 g/ha, Postemergence; 0 to 100 scale, 0 no injury, 100 complete control
dallisgrass = test: Test D dallisgrass; type: in vivo, Paspalum dilatatum; details: Rate 64 g/ha, Postemergence; 0 to 100 scale, 0 no injury, 100 complete control

C=CCn1c(=O)on(C(=O)N(c2ccccc2)C(C)C)c1=O [Compound 93]
Plant response rating Fall panicum (fall panicum; Rate 140 g/ha): 0
Plant response rating Fall panicum (fall panicum; Rate 280 g/ha): 80
Plant response rating Fall panicum (fall panicum; Rate 560 g/ha): 90
Plant response rating Fall panicum (fall panicum; Rate 1120 g/ha): 90
Plant response rating, Redroot pigweed (redroot pigweed; Rate 140 g/ha): 5
Plant response rating, Redroot pigweed (redroot pigweed; Rate 560 g/ha): 10
Plant response rating, Redroot pigweed (redroot pigweed; Rate 1120 g/ha): 85
Plant response rating, Cocklebur (cocklebur; Rate 140 g/ha): 0
Plant response rating, Cocklebur (cocklebur; Rate 280 g/ha): 35
Plant response rating, Cocklebur (cocklebur; Rate 560 g/ha): 40
Plant response rating E. blacknightsh (eastern black nightshade; Rate 140 g/ha): 10
Plant response rating E. blacknightsh (eastern black nightshade; Rate 280 g/ha): 40
Plant response rating E. blacknightsh (eastern black nightshade; Rate 1120 g/ha): 85
Plant response rating I. morningglory (ivyleaf morningglory; Rate 140 g/ha): 5
Plant response rating I. morningglory (ivyleaf morningglory; Rate 280 g/ha): 10
Plant response rating I. morningglory (ivyleaf morningglory; Rate 560 g/ha): 10
Plant response rating I. morningglory (ivyleaf morningglory; Rate 1120 g/ha): 70
Plant response rating Cotton (cotton; Rate 140 g/ha): 15
Plant response rating Cotton (cotton; Rate 280 g/ha): 30
Plant response rating Cotton (cotton; Rate 560 g/ha): 70
Plant response rating Cotton (cotton; Rate 1120 g/ha): 85
Plant response rating, Velvetleaf (velvetleaf; Rate 140 g/ha): 0
Plant response rating, Velvetleaf (velvetleaf; Rate 280 g/ha): 5
Plant response rating, Velvetleaf (velvetleaf; Rate 560 g/ha): 40
Plant response rating, Velvetleaf (velvetleaf; Rate 1120 g/ha): 70
Plant response rating, Giant foxtail (giant foxtail; Rate 140 g/ha): 10
Plant response rating, Giant foxtail (giant foxtail; Rate 280 g/ha): 55
Plant response rating, Giant foxtail (giant foxtail; Rate 560 g/ha): 80
Plant response rating, Giant foxtail (giant foxtail; Rate 1120 g/ha): 95
Plant response rating Ladysthumb (ladysthumb smartweed; Rate 140 g/ha): 0
Plant response rating Ladysthumb (ladysthumb smartweed; Rate 280 g/ha): 0
Plant response rating Ladysthumb (ladysthumb smartweed; Rate 560 g/ha): 80

CC(C)N(C(=O)n1oc(=O)n(C2CCCCC2C(F)(F)F)c1=O)c1ccc(F)cc1 (centres unmarked) [Compound 99]
Plant response rating, Barnyardgrass (barnyardgrass; Postemergence, Rate 1000 g/ha): 7
Plant response rating, Barnyardgrass (barnyardgrass; Pre-emergence, Rate 2000 g/ha): 9
Plant response rating, Crabgrass (crabgrass; Postemergence, Rate 1000 g/ha): 7
Plant response rating, Crabgrass (crabgrass; Pre-emergence, Rate 2000 g/ha): 10

CC(C)N(C(=O)n1oc(=O)n(Cc2cccs2)c1=O)c1ccccc1 [Compound 103]
Plant response rating Fall panicum (fall panicum; Rate 140 g/ha): 0
Plant response rating Fall panicum (fall panicum; Rate 280 g/ha): 0
Plant response rating Fall panicum (fall panicum; Rate 560 g/ha): 0
Plant response rating Fall panicum (fall panicum; Rate 1120 g/ha): 30
Plant response rating, Redroot pigweed (redroot pigweed; Rate 140 g/ha): 0
Plant response rating, Redroot pigweed (redroot pigweed; Rate 280 g/ha): 60
Plant response rating, Redroot pigweed (redroot pigweed; Rate 560 g/ha): 70
Plant response rating, Redroot pigweed (redroot pigweed; Rate 1120 g/ha): 85
Plant response rating, Cocklebur (cocklebur; Rate 140 g/ha): 0
Plant response rating, Cocklebur (cocklebur; Rate 280 g/ha): 0
Plant response rating, Cocklebur (cocklebur; Rate 560 g/ha): 0
Plant response rating, Cocklebur (cocklebur; Rate 1120 g/ha): 0
Plant response rating E. blacknightsh (eastern black nightshade; Rate 140 g/ha): 0
Plant response rating E. blacknightsh (eastern black nightshade; Rate 280 g/ha): 0
Plant response rating E. blacknightsh (eastern black nightshade; Rate 560 g/ha): 0
Plant response rating E. blacknightsh (eastern black nightshade; Rate 1120 g/ha): 0
Plant response rating I. morningglory (ivyleaf morningglory; Rate 140 g/ha): 0
Plant response rating I. morningglory (ivyleaf morningglory; Rate 280 g/ha): 0
Plant response rating I. morningglory (ivyleaf morningglory; Rate 560 g/ha): 0
Plant response rating I. morningglory (ivyleaf morningglory; Rate 1120 g/ha): 10
Plant response rating Cotton (cotton; Rate 140 g/ha): 0
Plant response rating Cotton (cotton; Rate 280 g/ha): 20
Plant response rating Cotton (cotton; Rate 560 g/ha): 40
Plant response rating Cotton (cotton; Rate 1120 g/ha): 80
Plant response rating, Velvetleaf (velvetleaf; Rate 140 g/ha): 0
Plant response rating, Velvetleaf (velvetleaf; Rate 280 g/ha): 5
Plant response rating, Velvetleaf (velvetleaf; Rate 560 g/ha): 10
Plant response rating, Velvetleaf (velvetleaf; Rate 1120 g/ha): 45
Plant response rating, Giant foxtail (giant foxtail; Rate 140 g/ha): 0
Plant response rating, Giant foxtail (giant foxtail; Rate 280 g/ha): 0
Plant response rating, Giant foxtail (giant foxtail; Rate 560 g/ha): 0
Plant response rating, Giant foxtail (giant foxtail; Rate 1120 g/ha): 40
Plant response rating Ladysthumb (ladysthumb smartweed; Rate 140 g/ha): 0
Plant response rating Ladysthumb (ladysthumb smartweed; Rate 280 g/ha): 0
Plant response rating Ladysthumb (ladysthumb smartweed; Rate 560 g/ha): 10
Plant response rating Ladysthumb (ladysthumb smartweed; Rate 1120 g/ha): 10

CC(C)Cn1c(=O)on(C(=O)N(c2ccc(F)cc2)C(C)C)c1=O [Compound 169]
Plant response rating, Green foxtail (Green foxtail [1]): 100
Plant response rating, Itchgrass (itchgrass): 0
Guineagrass plant response rating (guineagrass): 0
Plant response rating, Guineagrass (guineagrass): 100
Plant response rating, Com. groundsel (common groundsel): 65
Green foxtail plant response rating (Green foxtail [2]): 100
Plant response rating, Bermudagrass (bermuda-grass): 100
Spanishneedles plant response rating (Spanishneedles): 0
Plant response rating, P. morninglory (pitted morningglory): 0
Tall Mallow plant response rating (tall mallow): 0
Plant response rating, Dallisgrass (dallisgrass): 90
